# System: STAT3
# Assay: IL-6 induced STAT3 phosphorylation in T47D cells (Western immunoblotting)
# Assay type: cell-based, human
# Settings: serum deprived T47D cells; 5 μM for 0.5-3 h or 0.5-10 μM; IL-6 25 ng/ml 30 min
# Protocol: FIG. 2. • Overnight serum deprived T47D cells were stimulated with IL-6 (25 ng/ml) for 3, 5, 10, 20, 30, 45 and 60 min. JAK2, pYJAK2, STAT3 and pYSTAT3 were detected using Western immunoblotting as described in methods. B) Overnight serum derived T47D cells were pre-incubated with compound 4 (C4) (5 μM) for 0.5, 1, 2, and 3 h and stimulated with 25 ng/ml for 30 min. JAK2, pYJAK2, STAT3 and pYSTAT3 were detected using Western immunoblotting as described in methods. C) Overnight serum derived T47D cells were preincubated with C4 at increasing concentrations (0.5-10 μM) for 3 h and stimulated with 25 ng/ml IL-6 for 30 min. JAK2, pJAK2, STAT5 and pSTAT5 were detected using Western immunoblotting as described above. Equal protein loading was confirmed using a specific human anti-β-actin antibody. C—Veh: T47D cells exposed to C4 and IL-6 vehicle (0.1% DMSO and PBS, respectively) for the indicated times. C+: T47D cells exposed to C4 vehicle (0.1% DMSO) and stimulated with IL-6 (25 ng/ml) for the indicated time.
# T47D cells were routinely maintained in 75-cm^2 culture flasks with vented caps at 37° C., 5% CO2 in RPMI 1640 growth media without phenol red supplemented with 10% FBS, 2 mM L-glutamine, 10 mM HEPES, 50 U/ml penicillin/50 U/ml streptomycin, and 0.3 mg/ml gentamicin. […]
compound,measurement,value
"N#Cc1ccc(C2C3=C(CCCC3=O)OC3=C2C(=O)c2ccccc2C3=O)cc1 (stereo not shown) [Compound 4, 4-(1,6,11-trioxo-2,3,4,6,11,12-hexahydro-1H-benzo[b]xanthen-12-yl)benzonitrile]",IL-6-induced STAT3 phosphorylation,"inhibits, in a time/dose dependent manner"
